This is an account of results in patent US20240197719A1 (priority 2018, published 2024).

The conditions of series [1]: in vivo, iv; cited from earlier work.
The conditions of series [2]: in vivo; cited from earlier work.
For series [3] the following is noted: in vivo.

Molecules are shown by their SMILES.

Take `C=C1CC[C@@]2(O)[C@H]3Cc4ccc(O)c5c4[C@@]2(CCN3CC2CC2)[C@H]1O5` [Nalmefene, 17-cyclopropylmethyl-4,5α-epoxy-6-methylenemorphinan-3,14-diol]: the reported half-life in series [1] is 8 to 10.8 h. In series [2], the “incidence of adverse events” value is given as “less than 1%” and the “incidence of common adverse reactions” value is “greater than 1%”.
For `O=C1CC[C@@]2(O)[C@H]3Cc4ccc(O)c5c4[C@@]2(CCN3CC2CC2)[C@H]1O5` [naltrexone], in series [3], the AUC result is reported as “increased significantly”.
